This note sets out measurements from patent US20250326865A1, “C-MET PROTEIN-BINDING PEPTIDE COMPLEX” (PeptiDream Inc., priority 2021, published 2025).

Starred links: 1 amine or outer side, 2 acyl side, 3 side chain; linkers in the order of their positions; H or OH if unused. Positions of bridges follow the written chain, without caps; N, C: chain ends. Non-standard residues stand in square brackets, D forms with d. Residues, ends and D or L forms follow the SMILES beside them. Primed or numbered codes have the meaning given here. Chains are numbered I, II in the order given. No end group written: not given here. X1 = O=C(OCCOCCOCCOCCOCCOCCOCCOCCOCCOCCOCCOCCOC(=O)[*:2])[*:1]; NMeF = CN[C@@H](Cc1ccccc1)C(=O)O; Ahp(2) = CCCCC[C@H](N)C(=O)O; NMeC = CN[C@@H](CS)C(=O)O; Ahp′ = not defined here

Format in all cases: cell-based
Assay [1] has as its target T1, HGF R (Homo sapiens, UniProt P08581).
T1 construct: endogenous in cells; host or cells: A431
Kind of assay: Human Phospho-RTK array assay in A431 cells. To be noted: 10 minutes of stimulation, 2 nM complex, 7.8 nM HGF. Here is the method: A431 cells were cultured in DMEM high glucose, GlutaMAX (registered trademark) Supplement, pyruvate (Thermo Fisher Scientific), containing 10% FBS (Gibco). After cells were detached using Accutase (registered trademark) (Innovative cell technologies), they were seeded into a 6-well plate at 1000000 cells per well and cultured overnight.
The next day, for starvation, the culture medium was changed to DMEM high glucose, GlutaMAX (registered trademark) Supplement, pyruvate (Thermo Fisher Scientific), containing an assay medium (0.1% BSA (Sigma-Aldrich)), and the cells were cultured overnight. Then, 7.8 nM Recombinant Human HGF Protein (R&D systems) or 2 nM complex (GFs_c-Met 00014336-PEG9 dimer; peptide complex No. 51 in Table 4) of peptide (SEQ ID NO: 34) synthesized in Example 2 and a linker (SEQ ID NO: 36) was added, and after 10 minutes of stimulation, cells were lysed in a Lysis Buffer provided in the Proteome Profiler Human Phospho-RTK Array Kit (R & D systems). Thereafter, the procedure was performed according to the protocol of the kit, and chemiluminescent signals by WesternSure (registered trademark) PREMIUM chemiluminescent substrate kit (LI-COR) were detected using C-DiGit (registered trademark) (Scrum).
In (2) in FIG. 5, a is the result of no addition, b is of addition of HGF, and c of addition of the peptide complex.

Assay [2] has as its target T2, c-Met (Homo sapiens, UniProt P08581).
T2 construct: endogenous in cells; host or cells: A431 (human)
Kind of assay: Phospho-c-Met AlphaLISA assay (c-Met agonist activity) in A431 cells. Particulars: phospho-c-Met AlphaLISA, A431 cells, FIG. 1; read-out: EC50 (c-Met agonist activity). The method, boiled down:
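Human A431 cells serum-starved overnight in 0.1% BSA medium, then stimulated 15 min with peptide complex, with HGF as control. Phospho-c-Met (Tyr1234/1235) in lysates measured by AlphaLISA SureFire Ultra. C50 is the peptide concentration giving 50% of the HGF-induced signal.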

For assay [3], the system named is Normal human umbilical vein vascular endothelial cells (HUVECs). To be noted: HUVEC, cultured for 2 days after addition, FIG. 2; read-out: EC50 (HUVEC cell proliferation). Here is the method: In order to evaluate the biological activity of the peptide complex of the present invention, the cell proliferation inducing activity was verified. Normal human umbilical vein vascular endothelial cells (HUVECs) were cultured using HuMedia-EG2 (KURABO INDUSTRIES LTD.). After cells were detached using Accutase (Innovative cell technologies), they were resuspended in a Medium without serum or growth factors (Cell system) containing 5% FBS (MBL), seeded into a 96-well plate at 10000 cells per well, and cultured overnight. The next day, a complex (GFs_c-Met-00014336-PEG13 dimer; peptide complex no. 49 in Table 4) of the peptide (SEQ ID NO: 34) synthesized in Example 2 and a linker (SEQ ID NO: 37), or Recombinant Human HGF Protein (R&D systems) as a control was added and cultured for another 2 days. The medium was then removed and the cell count was determined quantitatively using the CellTiter-Glo (registered trademark) Luminescent Cell Viability Assay reagent (Promega) according to the protocol provided. A SpectraMax (registered trademark) Paradigm (registered trademark) multimode microplate reader (Molecular Devices, LLC.) was used for detection. The obtained signal value was analyzed by GraphPad Prism, and EC50 was calculated.

The subject of assay [4] is Renal proximal tubule epithelial cells (RPTEC). Kind of assay: Evaluation of tube formation in collagen gel. The method, then:
Renal proximal tubule epithelial cells (RPTEC) were cultured in a growth medium (Renal Epithelial Cell Basal Medium (REBM)+0.5% FBS+2.4 mM L-Alanyl-L-Glutamine+10 nM Triiodothyronine+10 ng/mL rh EGF+100 ng/mL Hydrocortisone Hemisuccinate+5 μg/mL rh Insulin+1 μM Epinephrine+5 μg/mL Transferrin) (ATCC). The cells were detached using Trypsin-EDTA, and then resuspended in an assay medium (REBM+0.5% FBS+2.4 mM L-Alanyl-L-Glutamine+10 nM Triiodothyronine+100 ng/mL Hydrocortisone Hemisuccinate+1 μM Epinephrine+5 μg/mL Transferrin+1.8 mM CaCl2).
RPTECs were resuspended in a mixture of Cellmatrix (registered trademark) Type I-A (Nitta Gelatin Inc.), concentrated culture solution (Nitta Gelatin Inc.) and a reconstitution buffer solution (Nitta Gelatin Inc.) on ice according to the instructions. […]
To the assay medium, 2 nM HGF, 1.6 nM EGF or a complex GFs_c-Met-00014336-PEG13 dimer; peptide complex No. 49 in Table 4) of a peptide (SEQ ID NO: 34) synthesized in Example 2 and a linker (SEQ ID NO: 37) at 0.08, 0.4, 2, and 10 nM, was added and 400 μL of each resultant mixture was added to each well of 48-well plate to which the gelated suspension had been added as mentioned above. […] The presence or absence of tube formation was observed and evaluated using a phase-contrast microscope on the third day and the eighth day of the start of the culturing.

T1 sequence (P08581 25-1390): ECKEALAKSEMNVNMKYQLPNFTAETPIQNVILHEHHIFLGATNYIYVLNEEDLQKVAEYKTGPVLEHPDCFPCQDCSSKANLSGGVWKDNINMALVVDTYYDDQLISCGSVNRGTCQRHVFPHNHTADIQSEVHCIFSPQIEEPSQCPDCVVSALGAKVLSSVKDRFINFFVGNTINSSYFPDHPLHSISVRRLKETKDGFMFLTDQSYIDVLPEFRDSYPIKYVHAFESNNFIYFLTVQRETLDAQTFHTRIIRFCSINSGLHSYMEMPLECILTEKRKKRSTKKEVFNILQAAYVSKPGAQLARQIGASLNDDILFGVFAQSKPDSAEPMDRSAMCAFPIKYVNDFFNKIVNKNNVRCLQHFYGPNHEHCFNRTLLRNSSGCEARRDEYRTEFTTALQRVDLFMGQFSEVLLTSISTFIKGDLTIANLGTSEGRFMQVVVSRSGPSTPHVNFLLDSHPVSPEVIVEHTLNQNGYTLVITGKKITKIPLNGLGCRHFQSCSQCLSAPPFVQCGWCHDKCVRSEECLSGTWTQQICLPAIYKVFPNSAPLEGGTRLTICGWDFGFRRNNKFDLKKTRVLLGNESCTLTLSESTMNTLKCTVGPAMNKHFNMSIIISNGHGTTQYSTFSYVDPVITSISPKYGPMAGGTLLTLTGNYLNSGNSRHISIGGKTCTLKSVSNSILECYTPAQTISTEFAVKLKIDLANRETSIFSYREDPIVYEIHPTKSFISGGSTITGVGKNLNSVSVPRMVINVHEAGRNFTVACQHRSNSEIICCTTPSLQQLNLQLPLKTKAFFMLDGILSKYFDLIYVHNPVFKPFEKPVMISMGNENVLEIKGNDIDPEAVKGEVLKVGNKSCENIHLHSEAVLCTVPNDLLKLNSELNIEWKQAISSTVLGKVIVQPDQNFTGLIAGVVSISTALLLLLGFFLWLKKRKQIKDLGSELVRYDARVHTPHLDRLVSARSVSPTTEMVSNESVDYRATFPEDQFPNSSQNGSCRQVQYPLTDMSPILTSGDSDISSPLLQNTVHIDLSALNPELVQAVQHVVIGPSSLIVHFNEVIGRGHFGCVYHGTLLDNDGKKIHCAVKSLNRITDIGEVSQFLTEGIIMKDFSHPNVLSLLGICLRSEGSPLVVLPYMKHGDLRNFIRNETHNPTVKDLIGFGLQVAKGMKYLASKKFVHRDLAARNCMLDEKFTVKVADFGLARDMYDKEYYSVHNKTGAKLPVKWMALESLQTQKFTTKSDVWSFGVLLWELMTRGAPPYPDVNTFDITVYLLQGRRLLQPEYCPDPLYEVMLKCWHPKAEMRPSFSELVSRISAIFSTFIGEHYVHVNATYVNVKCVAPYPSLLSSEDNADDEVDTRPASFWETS
T2 sequence (P08581 25-1390): as above

Turning to “51 ({CH2CO}-[NMeF]TAVS[NMeF]DED[Ahp′]PRWS[NMeC]; thioether N-15 (inferred); not fully specified; reading uncertain; also: conjugated moiety via linker) [compound 51]”, the “specific phosphorylation pattern of receptor tyrosine kinases” value in assay [1] is “Only HGF R was specifically phosphorylated”.

In the case of “HGF: Recombinant Human HGF Protein (R&D systems), hepatocyte growth factor, used as a control”, the results for the EC50 in assay [2] and in assay [3] were 0.66 nM and 0.37 nM, respectively. Moreover, in assay [1], the “specific phosphorylation pattern of receptor tyrosine kinases” value is “Only HGF R was specifically phosphorylated”.

For `CCCCC[C@@H]1NC(=O)[C@H](CC(=O)O)NC(=O)[C@H](CCC(=O)O)NC(=O)[C@H](CC(=O)O)NC(=O)[C@H](Cc2ccccc2)N(C)C(=O)[C@H](CO)NC(=O)[C@H](C(C)C)NC(=O)[C@H](C)NC(=O)[C@H]([C@@H](C)O)NC(=O)[C@H](Cc2ccccc2)N(C)C(=O)CSC[C@@H](C(=O)NCC(=O)N[C@@H](CCCCNC(=O)OCCOCCOCCOCCOCCOCCOCCOCCOCCOCCOCCOCCOC(=O)NCCCC[C@H](NC(=O)CNC(=O)[C@@H]2CSCC(=O)N(C)[C@@H](Cc3ccccc3)C(=O)N[C@@H]([C@@H](C)O)C(=O)N[C@@H](C)C(=O)N[C@@H](C(C)C)C(=O)N[C@@H](CO)C(=O)N(C)[C@@H](Cc3ccccc3)C(=O)N[C@@H](CC(=O)O)C(=O)N[C@@H](CCC(=O)O)C(=O)N[C@@H](CC(=O)O)C(=O)N[C@@H](CCCCC)C(=O)N3CCC[C@H]3C(=O)N[C@@H](CCCNC(=N)N)C(=O)N[C@@H](Cc3c[nH]c4ccccc34)C(=O)N[C@@H](CO)C(=O)N2C)C(N)=O)C(N)=O)N(C)C(=O)[C@H](CO)NC(=O)[C@H](Cc2c[nH]c3ccccc23)NC(=O)[C@H](CCCNC(=N)N)NC(=O)[C@@H]2CCCN2C1=O` [compound 49] (I: {CH2CO}-[NMeF]TAVS[NMeF]DED[Ahp(2)]PRWS[NMeC]GK-NH2 / II: {CH2CO}-[NMeF]TAVS[NMeF]DED[Ahp(2)]PRWS[NMeC]GK-NH2; linker I:17-II:17 via X1 (inferred); thioether I:N-I:15, II:N-II:15 (inferred); C-terminus assumed), the tube formation result in assay [4] (RPTEC in collagen gel, 0.08-10 nM, third and eighth day, phase-contrast microscope) is “promoted tube formation”. Moreover, the “tube formation with branching” value in assay [4] (RPTEC, 10 nM complex, eighth day (f of FIG. 4)) is listed as “not only tube formation but also branch formation was promoted”. In addition, in assay [3], the EC50 turned out to be 0.55 nM.
